{"source": "paper PMC10233829", "about": "(ACS Omega, 2023)", "key": {"M. tuberculosis H37Rv": {"tested_on": "M. tuberculosis H37Rv", "test": "Tuberculostatic activity, Microplate Alamar Blue Assay (MIC)", "assay_type": "cell-based, Mycobacterium tuberculosis", "conditions": "Mycobacterium tuberculosis, H37RV; MABA; read-out: MIC M. tuberculosis H37Rv"}, "S. epidermidis KR4243/1": {"tested_on": "S. epidermidis KR4243/1", "test": "MIC, twofold microdilution, clinical strain", "assay_type": "cell-based", "conditions": "Staphylococcus epidermidis, 18 h"}, "S. aureus ATCC 29213": {"tested_on": "S. aureus ATCC 29213", "test": "MIC, twofold microdilution, standard strain", "assay_type": "cell-based", "conditions": "Staphylococcus aureus, ATCC29213, 18 h"}, "P. aeruginosa 37": {"tested_on": "P. aeruginosa 37", "test": "MIC, twofold microdilution, clinical strain", "assay_type": "cell-based", "conditions": "Pseudomonas aeruginosa, 18 h"}, "S. aureus T5595": {"tested_on": "S. aureus T5595", "test": "MIC, twofold microdilution, clinical strain", "assay_type": "cell-based, Staphylococcus aureus"}, "[1]": {"test": "MTT assay, cytotoxic activity", "assay_type": "cell-based", "conditions": "human, HaCaT cells (immortal keratinocytes); MTT, 72 h, normal cell line; read-out: IC50 HaCaT", "description": "(§1) Cells were seeded in 6 mL medium in a tissue culture flask (50 mL) in a 37 °C/5% CO2 humidified incubator. […] MTT analysis was performed according to a previous study.[59] Untreated cells were used as controls. Cell absorbance results were inserted into the formula for the relative MTT level (%). It allows to calculate the viability of cells under the influence of the tested compounds. Cell viability was expressed as the percentage of MTT reduction in cells treated with tested compounds compared to the control sample. The relative MTT level was calculated using the formula [100%] = A/B × 100% where A—the test sample absorbance and B—the control sample absorbance."}, "P. aeruginosa 659": {"tested_on": "P. aeruginosa 659", "test": "MIC, twofold microdilution, clinical strain", "assay_type": "cell-based", "conditions": "Pseudomonas aeruginosa, 18 h"}, "E. cloacae 8": {"tested_on": "E. cloacae 8", "test": "MIC, twofold microdilution, clinical strain", "assay_type": "cell-based, Escherichia cloacae", "conditions": "Enterobacter cloacae, 8; clinical strain, 18 h"}, "S. epidermidis 5253": {"tested_on": "S. epidermidis 5253", "test": "MIC, twofold microdilution, clinical strain", "assay_type": "cell-based, Staphylococcus epidermidis", "conditions": "Staphylococcus epidermidis, 5253, 18 h"}, "[2]": {"tested_on": "S. epidermidis ATCC 35984", "test": "MIC, twofold microdilution, standard strain", "assay_type": "cell-based", "conditions": "Staphylococcus epidermidis, ATCC35984, 18 h"}, "E. coli 951": {"tested_on": "E. coli 951", "test": "MIC, twofold microdilution, clinical strain", "assay_type": "cell-based", "conditions": "Escherichia coli, 18 h"}, "P. aeruginosa ATCC 15442": {"tested_on": "P. aeruginosa ATCC 15442", "test": "MIC, twofold microdilution, standard strain", "assay_type": "cell-based, Pseudomonas aeruginosa", "conditions": "Pseudomonas aeruginosa, ATCC15442; standard strain, 18 h"}, "S. aureus ATCC 25923": {"tested_on": "S. aureus ATCC 25923", "test": "MIC, twofold microdilution, standard strain", "assay_type": "cell-based", "conditions": "Staphylococcus aureus, ATCC25923, 18 h"}, "S. aureus 5595": {"tested_on": "S. aureus 5595", "test": "MIC, twofold microdilution, clinical strain", "assay_type": "cell-based", "conditions": "Staphylococcus aureus, 18 h"}, "S. aureus T5591": {"tested_on": "S. aureus T5591", "test": "MIC, twofold microdilution, clinical strain", "assay_type": "cell-based, Staphylococcus aureus"}, "[3]": {"tested_on": "P. aeruginosa ATCC 15442 and E. coli ATCC 25922", "test": "MIC, standard Gram-negative rods as a panel", "assay_type": "cell-based", "conditions": "P. aeruginosa ATCC 15442, E. coli ATCC 25922; read-out: MIC against standard Gram-negative rods (range over strains)"}, "S. aureus NCTC 4163": {"tested_on": "S. aureus NCTC 4163", "test": "MIC, twofold microdilution, standard strain", "assay_type": "cell-based", "conditions": "Staphylococcus aureus, NCTC4163, 18 h"}, "S. epidermidis 4341": {"tested_on": "S. epidermidis 4341", "test": "MIC, twofold microdilution, clinical strain", "assay_type": "cell-based", "conditions": "Staphylococcus epidermidis, 18 h"}, "E. coli 520": {"tested_on": "E. coli 520", "test": "MIC, twofold microdilution, clinical strain", "assay_type": "cell-based", "conditions": "Escherichia coli, 18 h"}, "PC3 cells": {"tested_on": "PC3 cells", "test": "MTT assay, cytotoxic activity", "assay_type": "cell-based, human", "conditions": "Homo sapiens, PC-3, 72 h, MTT, 72 h", "description": "as §1, with “Metastatic prostate cancer (PC3) and human immortal keratinocyte (HaCaT) cell lines were purchased from the American Type Culture Collection (ATCC, Rockville, MD, USA) and cultured in MEM (minimal essential medium, Thermo Sci, USA), RPMI 1640 (Roswell Park Memorial Institute, Biowest SAS, France), and DMEM (Dulbecco’s Modified Eagle’s Medium, Biowest SAS, France). Cells” for “Cells”"}, "[4]": {"tested_on": "M. tuberculosis Spec. 192", "test": "Tuberculostatic activity, Microplate Alamar Blue Assay (MIC)", "assay_type": "cell-based", "conditions": "Mycobacterium tuberculosis, MABA, read-out: MIC M. tuberculosis Spec. 192 (sensitive to tuberculostatics)"}, "[5]": {"tested_on": "S. epidermidis ATCC 12228", "test": "MIC, twofold microdilution, standard strain", "assay_type": "cell-based", "conditions": "Staphylococcus epidermidis, ATCC12228, 18 h"}, "E. coli 600": {"tested_on": "E. coli 600", "test": "MIC, twofold microdilution, clinical strain", "assay_type": "cell-based, Escherichia coli", "conditions": "18 h"}, "S. pasteuri KR 4358": {"tested_on": "S. pasteuri KR 4358", "test": "MIC, twofold microdilution, clinical strain", "assay_type": "cell-based", "conditions": "Staphylococcus pasteuri, KR4358, 18 h"}, "M. tuberculosis Spec 210": {"tested_on": "M. tuberculosis Spec 210", "test": "microbe, parasite or virus in culture", "assay_type": "cell-based, Mycobacterium tuberculosis", "conditions": "M. tuberculosis Spec. 210"}, "S. aureus ATCC 6538": {"tested_on": "S. aureus ATCC 6538", "test": "MIC, twofold microdilution, standard strain", "assay_type": "cell-based, Staphylococcus aureus", "conditions": "Staphylococcus aureus, ATCC6538; standard strain, 18 h"}, "E. coli ATCC 25922": {"tested_on": "E. coli ATCC 25922", "test": "MIC, twofold microdilution, standard strain", "assay_type": "cell-based, Escherichia coli", "conditions": "Escherichia coli, ATCC25922; standard strain, 18 h"}, "[6]": {"tested_on": "clinical bacterial strains", "test": "MIC, clinical isolates as groups of strains", "assay_type": "cell-based"}, "S. aureus 180": {"tested_on": "S. aureus 180", "test": "MIC, twofold microdilution, clinical strain", "assay_type": "cell-based", "conditions": "Staphylococcus aureus, 18 h"}, "K. pneumoniae 28": {"tested_on": "K. pneumoniae 28", "test": "MIC, twofold microdilution, clinical strain", "assay_type": "cell-based", "conditions": "Klebsiella pneumoniae, 18 h"}, "K. pneumoniae 510": {"tested_on": "K. pneumoniae 510", "test": "MIC, twofold microdilution, clinical strain", "assay_type": "cell-based, Klebsiella pneumoniae", "conditions": "Klebsiella pneumoniae, 510; clinical strain, 18 h"}, "[7]": {"molecular_target": "T1, S. aureus topoisomerase IV (Staphylococcus aureus, UniProt P0C1S7+P0C1U9)", "T1 construct": "purchased Inspiralis, Norwich, UK", "test": "Topoisomerase IV decatenation assay", "assay_type": "biochemical", "conditions": "IC50 S. aureus topoisomerase IV, decatenation of kinetoplast DNA"}}}
{"compound": "O=C(O)c1cn(C2CC2)c2cc(N3CCN(C(=O)CCBr)CC3)c(F)cc2c1=O", "note": "[Compound 9, 7-[4-(3-Bromopropionyl)-piperazin-1-yl]-1-cyclopropyl-6-fluoro-4-oxo-1,4-dihydro-quinoline-3-carboxylic Acid]", "values": [{"measurement": "MIC", "setting": "M. tuberculosis H37Rv", "result": 2, "unit": "µg/mL"}, {"measurement": "MIC", "setting": "S. epidermidis KR4243/1", "result": 0.1, "unit": "µg/mL"}, {"measurement": "MIC", "setting": "S. aureus ATCC 29213", "result": 0.2, "unit": "µg/mL"}, {"measurement": "MIC", "setting": "P. aeruginosa 37", "result": 128, "unit": "µg/mL"}, {"measurement": "MIC S. aureus T5595", "setting": "S. aureus T5595; 18 h", "result": 0.2, "unit": "µg/mL"}, {"measurement": "MIC", "setting": "S. aureus T5595; Staphylococcus aureus, T5595, 18 h", "result": "0.1 to 0.2", "unit": "µg/mL"}, {"measurement": "IC50 at 72 h", "setting": "[1]", "result": "> 100", "unit": "µM"}, {"measurement": "MIC", "setting": "P. aeruginosa 659", "result": "> 25.6", "unit": "µg/mL"}, {"measurement": "MIC", "setting": "E. cloacae 8", "result": 2, "unit": "µg/mL"}, {"measurement": "MIC", "setting": "S. epidermidis 5253", "result": 128, "unit": "µg/mL"}, {"measurement": "MIC", "setting": "[2]", "result": 0.2, "unit": "µg/mL"}, {"measurement": "MIC", "setting": "E. coli 951", "result": 64, "unit": "µg/mL"}, {"measurement": "MIC", "setting": "P. aeruginosa ATCC 15442", "result": 12.8, "unit": "µg/mL"}, {"measurement": "MIC", "setting": "S. aureus ATCC 25923", "result": 0.2, "unit": "µg/mL"}, {"measurement": "MIC", "setting": "S. aureus 5595", "result": 0.5, "unit": "µg/mL"}, {"measurement": "MIC S. aureus T5591", "setting": "S. aureus T5591; 18 h", "result": 0.1, "unit": "µg/mL"}, {"measurement": "MIC", "setting": "S. aureus T5591; Staphylococcus aureus, T5591, 18 h", "result": "0.1 to 0.2", "unit": "µg/mL"}, {"measurement": "MIC", "setting": "[3]", "result": "≤ 1", "unit": "µg/mL"}, {"measurement": "MIC", "setting": "S. aureus NCTC 4163", "result": 0.1, "unit": "µg/mL"}, {"measurement": "MIC", "setting": "S. epidermidis 4341", "result": 16, "unit": "µg/mL"}, {"measurement": "MIC", "setting": "E. coli 520", "result": 0.8, "unit": "µg/mL"}, {"measurement": "IC50", "setting": "PC3 cells", "result": "69.1 ± 5.8", "unit": "µM"}, {"measurement": "MIC", "setting": "[4]", "result": 2, "unit": "µg/mL"}, {"measurement": "MIC", "setting": "[5]", "result": 0.2, "unit": "µg/mL"}, {"measurement": "MIC E. coli 600", "setting": "E. coli 600", "result": "–0.4 μg/mL"}, {"measurement": "MIC", "setting": "S. pasteuri KR 4358", "result": 0.2, "unit": "µg/mL"}, {"measurement": "fold more effective than the reference tuberculostatics", "setting": "M. tuberculosis Spec 210", "result": "8–32 fold"}, {"measurement": "MIC", "setting": "S. aureus ATCC 6538", "result": 0.2, "unit": "µg/mL"}, {"measurement": "MIC", "setting": "E. coli ATCC 25922", "result": 0.4, "unit": "µg/mL"}, {"measurement": "times more powerful than CP", "setting": "[6]; S. aureus T5595 and T5591", "result": "1.25–2.5 times"}, {"measurement": "MIC", "setting": "[6]; clinical strains, read-out: MIC against selected E. coli and E. cloacae strains", "result": "0.1 to 0.8", "unit": "µg/mL"}, {"measurement": "MIC", "setting": "S. aureus 180", "result": 0.5, "unit": "µg/mL"}, {"measurement": "MIC", "setting": "K. pneumoniae 28", "result": "> 25.6", "unit": "µg/mL"}, {"measurement": "MIC", "setting": "K. pneumoniae 510", "result": "> 25.6", "unit": "µg/mL"}]}
{"compound": "COc1c(N2C[C@@H]3CCCN[C@@H]3C2)c(F)cc2c(=O)c(C(=O)O)cn(C3CC3)c12", "note": "[MXF, moxifloxacin, reference compound]", "values": [{"measurement": "IC50", "setting": "[7]", "result": 3.74, "unit": "µM"}]}
